Measured values from ChEMBL document CHEMBL5331067, “Disubstituted pyrimidine-5-carboxamide derivatives as novel HIV-1 NNRTIs: Crystallographic overlay-based molecular design, synthesis, and biological evaluation” (Eur J Med Chem, 2023).

Experiments:
[1] = Selectivity index, ratio of CC50 for cytotoxicity against human MT4 cells assessed as reduction in cell viability to EC50 for antiviral activity against NNRTI-resistant HIV-1 harboring E138K mutant infected in human MT4 cells; type: toxicity, cell-based; details: read-out: Ratio CC50/EC50
[2] = tested on: Human immunodeficiency virus 1; experiment: Antiviral activity against NNRTI-resistant HIV-1 harboring F227L/V106A double mutant infected in human MT4 cells assessed as virus-induced cytopathicity incubated for 5 days by MTT assay; type: functional, organism-based; details: Human immunodeficiency virus 1, MT4, 120 h
[3] = tested on: Human immunodeficiency virus 1; experiment: Antiviral activity against NNRTI-resistant HIV-1 harboring L100I mutant infected in human MT4 cells assessed as virus-induced cytopathicity incubated for 5 days by MTT assay; type: functional, organism-based; details: Human immunodeficiency virus 1, MT4, 120 h
[4] = tested on: Human immunodeficiency virus 1; experiment: Antiviral activity against HIV-1 RES056 infected in human MT4 cells assessed as reduction in virus induced cytopathic effect incubated for 5 days by MTT assay; type: functional, organism-based; details: Human immunodeficiency virus 1, RES056, MT4, 120 h
[5] = tested on: Human immunodeficiency virus 1; experiment: Antiviral activity against NNRTI-resistant HIV-1 harboring K103N mutant infected in human MT4 cells assessed as virus-induced cytopathicity incubated for 5 days by MTT assay; type: functional, organism-based; details: Human immunodeficiency virus 1, MT4, 120 h
[6] = tested on: Human immunodeficiency virus 1; experiment: Antiviral activity against NNRTI-resistant HIV-1 harboring Y181C mutant infected in human MT4 cells assessed as virus-induced cytopathicity incubated for 5 days by MTT assay; type: functional, organism-based; details: Human immunodeficiency virus 1, MT4, 120 h
[7] = Fold resistance, ratio of EC50 for antiviral activity against NNRTI-resistant HIV-1 harboring Y188L mutant infected in human MT4 cells assessed as virus-induced cytopathicity to EC50 for antiviral activity against HIV-1 IIIB infected in human MT4 cells assessed as reduction in virus induced cytopathic effect; type: functional
[8] = Fold resistance, ratio of EC50 for antiviral activity against NNRTI-resistant HIV-1 harboring K103N mutant infected in human MT4 cells assessed as virus-induced cytopathicity to EC50 for antiviral activity against HIV-1 IIIB infected in human MT4 cells assessed as reduction in virus induced cytopathic effect; type: functional
[9] = Fold resistance, ratio of EC50 for antiviral activity against NNRTI-resistant HIV-1 harboring E138K mutant infected in human MT4 cells assessed as virus-induced cytopathicity to EC50 for antiviral activity against HIV-1 IIIB infected in human MT4 cells assessed as reduction in virus induced cytopathic effect; type: functional
[10] = Cytotoxicity against human MT4 cells assessed as cell growth inhibition incubated for 5 days by MTT assay; type: toxicity, cell-based; details: time 5 day
[11] = Selectivity index, ratio of CC50 for cytotoxicity against human MT4 cells assessed as reduction in cell viability to EC50 for antiviral activity against HIV-1 RES056 infected in human MT4 cells assessed as reduction in virus induced cytopathic effect; type: toxicity, cell-based; details: read-out: Ratio CC50/EC50
[12] = Selectivity index, ratio of CC50 for cytotoxicity against human MT4 cells assessed as reduction in cell viability to EC50 for antiviral activity against HIV-1 IIIB infected in human MT4 cells assessed as reduction in virus induced cytopathic effect; type: toxicity, cell-based; details: read-out: Ratio CC50/EC50
[13] = Fold resistance, ratio of EC50 for antiviral activity against NNRTI-resistant HIV-1 harboring Y181C mutant infected in human MT4 cells assessed as virus-induced cytopathicity to EC50 for antiviral activity against HIV-1 IIIB infected in human MT4 cells assessed as reduction in virus induced cytopathic effect; type: functional
[14] = Selectivity index, ratio of CC50 for cytotoxicity against human MT4 cells assessed as reduction in cell viability to EC50 for antiviral activity against NNRTI-resistant HIV-1 harboring K103N mutant infected in human MT4 cells; type: toxicity, cell-based; details: read-out: Ratio CC50/EC50
[15] = Selectivity index, ratio of CC50 for cytotoxicity against human MT4 cells assessed as reduction in cell viability to EC50 for antiviral activity against NNRTI-resistant HIV-1 harboring Y188L mutant infected in human MT4 cells; type: toxicity, cell-based; details: read-out: Ratio CC50/EC50
[16] = biological target: Human immunodeficiency virus type 1 reverse transcriptase (Human immunodeficiency virus 1, UniProt Q72547); experiment: Inhibition of wild type HIV-1 reverse transcriptase assessed as reduction of biotin-dUTP incorporation into […] using ABTS as substrate incubated for 1 hrs by ELISA analysis
[17] = tested on: Human immunodeficiency virus 1; experiment: Antiviral activity against NNRTI-resistant HIV-1 harboring E138K mutant infected in human MT4 cells assessed as virus-induced cytopathicity incubated for 5 days by MTT assay; type: functional, organism-based; details: Human immunodeficiency virus 1, MT4, 120 h
[18] = Fold resistance, ratio of EC50 for antiviral activity against NNRTI-resistant HIV-1 harboring L100I mutant infected in human MT4 cells assessed as virus-induced cytopathicity to EC50 for antiviral activity against HIV-1 IIIB infected in human MT4 cells assessed as reduction in virus induced cytopathic effect; type: functional
[19] = tested on: Human immunodeficiency virus 1; experiment: Antiviral activity against NNRTI-resistant HIV-1 harboring Y188L mutant infected in human MT4 cells assessed as virus-induced cytopathicity incubated for 5 days by MTT assay; type: functional, organism-based; details: Human immunodeficiency virus 1, MT4, 120 h
[20] = Selectivity index, ratio of CC50 for cytotoxicity against human MT4 cells assessed as reduction in cell viability to EC50 for antiviral activity against NNRTI-resistant HIV-1 harboring Y181C mutant infected in human MT4 cells; type: toxicity, cell-based; details: read-out: Ratio CC50/EC50
[21] = Selectivity index, ratio of CC50 for cytotoxicity against human MT4 cells assessed as reduction in cell viability to EC50 for antiviral activity against NNRTI-resistant HIV-1 harboring L100I mutant infected in human MT4 cells; type: toxicity, cell-based; details: read-out: Ratio CC50/EC50
[22] = Fold resistance, ratio of EC50 for antiviral activity against NNRTI-resistant HIV-1 harboring F227L/V106A double mutant infected in human MT4 cells assessed as virus-induced cytopathicity to EC50 for antiviral activity against HIV-1 RES056 infected in human MT4 cells assessed as reduction in virus induced cytopathic effect; type: functional
[23] = tested on: Human immunodeficiency virus 1; experiment: Antiviral activity against HIV-1 IIIB infected in human MT4 cells assessed as reduction in virus induced cytopathic effect incubated for 5 days by MTT assay; type: functional, organism-based; details: Human immunodeficiency virus 1, IIIB, MT4, 120 h
[24] = Fold resistance, ratio of EC50 for antiviral activity against NNRTI-resistant HIV-1 harboring F227L/V106A double mutant infected in human MT4 cells assessed as virus-induced cytopathicity to EC50 for antiviral activity against HIV-1 IIIB infected in human MT4 cells assessed as reduction in virus induced cytopathic effect; type: functional
[25] = Selectivity index, ratio of CC50 for cytotoxicity against human MT4 cells assessed as reduction in cell viability to EC50 for antiviral activity against NNRTI-resistant HIV-1 harboring F227L/V106A double mutant infected in human MT4 cells; type: toxicity, cell-based; details: read-out: Ratio CC50/EC50

| SMILES | selectivity ratio [1] | EC50 [2] | EC50 [3] | EC50 [4] | EC50 [5] | EC50 [6] | Ratio EC50 [7] | Ratio EC50 [8] | Ratio EC50 [9] | CC50 at 120 h [10] | selectivity ratio [11] | selectivity ratio [12] | Ratio EC50 [13] | selectivity ratio [14] | selectivity ratio [15] | IC50 [16] | EC50 [17] | Ratio EC50 [18] | EC50 [19] | EC50 [23] | other results |
| --- | --- | --- | --- | --- | --- | --- | --- | --- | --- | --- | --- | --- | --- | --- | --- | --- | --- | --- | --- | --- | --- |
| Cc1cc(C#N)cc(C)c1Oc1nc(NC2CCN(c3ccc(NS(N)(=O)=O)cc3)CC2)ncc1C(N)=O | 1470 | 584 nM | 370 nM | 152000 nM | 37 nM | 176 nM | 3.6 | 1.1 | 3.7 | 176000 nM | 1 | 5370 | 5.4 | 4730 | 1480 | 941 nM | 120 nM | 11.3 | 118 nM | 33 nM | selectivity ratio [20]: 997; selectivity ratio [21]: 474; Ratio EC50 [22]: 4648.8; Ratio EC50 [24]: 17.9; selectivity ratio [25]: 301 |
| Cc1cc(C#N)cc(C)c1Oc1nc(Nc2ccc(C#N)c(F)c2)ncc1C(N)=O | 681 | 3110 nM | 50 nM | 7190 nM | 20 nM | 180 nM | 9.4 | 1.8 | 4.7 | 34900 nM | 5 | 3230 | 16.6 | 1770 | 345 | 170 nM | 51 nM | 4.6 | 101 nM | 11 nM | selectivity ratio [20]: 194; selectivity ratio [21]: 698; Ratio EC50 [22]: 663.7; Ratio EC50 [24]: 287.6; selectivity ratio [25]: 11 |
| Cc1cc(C#N)cc(C)c1Oc1nc(Nc2ccc(C#N)cc2)nc(N)c1Br [ETRAVIRINE] |  |  |  | 61 nM |  |  |  |  |  | > 4600 nM |  |  |  |  |  |  | 10 nM |  |  |  |  |
| Cc1cc(C#N)cc(C)c1Oc1nc(NC2CCN(c3cccc(C#N)c3)CC2)ncc1C(N)=O |  |  |  | 48100 nM |  |  |  |  |  | 111000 nM |  | 402 |  |  |  |  |  |  |  | 276 nM |  |
| Cc1cc(C#N)cc(C)c1Oc1nc(NC2CCN(Cc3ccc(S(N)(=O)=O)cc3)CC2)ncc1C(N)=O | 680 | 439 nM | 209 nM | 6120 nM | 62 nM | 295 nM | 5.1 | 1.3 | 6.3 | 198000 nM | 32 | 4300 | 6.4 | 3180 | 847 | 163 nM | 291 nM | 4.5 | 234 nM | 46 nM | selectivity ratio [20]: 671; selectivity ratio [21]: 946; Ratio EC50 [22]: 132.9; Ratio EC50 [24]: 9.5; selectivity ratio [25]: 451 |
| Cc1cc(C#N)cc(C)c1Oc1nc(NC2CCN(c3ccc(NS(C)(=O)=O)cc3)CC2)ncc1C(N)=O | > 1040 | 781 nM | 247 nM | 33200 nM | 154 nM | 259 nM | 1.2 | 8 | 11.6 | > 233000 nM | > 7 | > 12100 | 13.4 | > 1510 | > 9940 | 200 nM | 226 nM | 12.7 | 24 nM | 19 nM | selectivity ratio [20]: > 901; selectivity ratio [21]: > 946; Ratio EC50 [22]: 1716.7; Ratio EC50 [24]: 40.3; selectivity ratio [25]: > 299 |
| Cc1cc(C#N)cc(C)c1Oc1nc(Nc2ccc(CN3CCN(S(C)(=O)=O)CC3)cc2)ncc1C(N)=O |  |  |  | > 233000 nM |  |  |  |  |  | > 233000 nM |  | > 132 |  |  |  |  |  |  |  | 1770 nM |  |
| Cc1cc(C#N)cc(C)c1Oc1nc(NC2CCN(c3cccc(C(N)=O)c3)CC2)ncc1C(N)=O |  |  |  | > 257000 nM |  |  |  |  |  | > 257000 nM |  | > 6 |  |  |  |  |  |  |  | 43900 nM |  |
| Cc1cc(C#N)cc(C)c1Oc1nc(Nc2ccc(C#N)nc2)ncc1C(N)=O |  |  |  | > 27900 nM |  |  |  |  |  | 27900 nM |  | 218 |  |  |  |  |  |  |  | 128 nM |  |
| Cc1cc(C#N)cc(C)c1Oc1nc(Nc2ccc(CN3CCNCC3)cc2)ncc1C(N)=O |  |  |  | > 273000 nM |  |  |  |  |  | > 273000 nM |  | > 20 |  |  |  |  |  |  |  | 13400 nM |  |
| O=C1Nc2ccc(Cl)cc2[C@@](C#CC2CC2)(C(F)(F)F)O1 [EFAVIRENZ] |  |  |  |  |  |  |  |  |  | > 6350 nM |  |  |  |  |  |  |  |  |  |  |  |
| Cc1cc(C#N)cc(C)c1Oc1nc(Nc2ccc(CN3CCN(S(N)(=O)=O)CC3)cc2)ncc1C(N)=O |  |  |  | > 173000 nM |  |  |  |  |  | 173000 nM |  | 112 |  |  |  |  |  |  |  | 1550 nM |  |
| Cc1ccnc2c1NC(=O)c1cccnc1N2C1CC1 [NEVIRAPINE] |  |  |  | > 15000 nM |  |  |  |  |  | > 15000 nM |  |  |  |  |  |  | 168 nM |  |  | 151 nM |  |
